# According to PMC10999543, “Identification of kinase modulators as host-directed therapeutics against intracellular methicillin-resistant Staphylococcus aureus” (Frontiers in Cellular and Infection Microbiology, 2024):
# Like-named read-outs stand apart in the source and are kept apart here.
# Key:
# intracellular MRSA = type: cell-based, Staphylococcus aureus; conditions: for z-scoreMRSA+ mean: mean of 3 replicates; for z-scoreMRSA+ rep 1 / %GFP+ rep 1: replicate 1; for z-scoreMRSA+ rep 2 / %GFP+ rep 2: replicate 2; for z-scoreMRSA+ rep 3 / %GFP+ rep 3: replicate 3
# How it was run: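 HeLa cells infected with GFP-MRSA (MOI ~6.8), gentamicin-cleared, then incubated overnight at 37°C with inhibitors plus 5 µg/ml gentamicin; DMSO as negative control, triplicates. Flow cytometry gave % GFP-positive cells and cell count (viability surrogate); hits by plate z-score (MRSA ≤ -2, HeLa count ≥ -3).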
# HeLa cells = test: Compound screen by flow cytometry: HeLa cell count as surrogate readout of cell viability (z-scoreHeLa); type: cell-based, human; conditions: for z-scoreHeLa mean: mean of 3 replicates; for z-scoreHeLa rep 1 / cell count rep 1: replicate 1; for z-scoreHeLa rep 2 / cell count rep 2: replicate 2; for z-scoreHeLa rep 3 / cell count rep 3: replicate 3
# How it was run: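 HeLa cells were infected with GFP-MRSA (mean MOI 6.8 ± 4.6) for 1 h, and extracellular bacteria were killed with 30 µg/ml gentamicin. Cells were then incubated overnight with kinase inhibitors in 5 µg/ml gentamicin, in triplicate against DMSO controls. Flow-cytometric cell count served as a viability surrogate, expressed as a plate z-score.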
# [1] = PKIS compound screen, Yes/No call
# [2] = PKIS compound screen, Yes/No call (effect without cell death)
# [3] = PKIS compounds raw data, MRSA-infected HeLa cells
# [4] = PKIS compounds raw data, HeLa cell count
# [5] = PKIS compound screen raw data, MRSA-infected HeLa cells
# [6] = Yes/No: effect without cell death
# [7] = compound screen, MRSA-infected HeLa cells
# [8] = PKIS compound screen raw data, HeLa cell count
# [9] = compound screen, HeLa cell count
# [10] = PKIS compound screen, MRSA-infected HeLa cells
# [11] = PKIS compound screen, Yes/No call on z-scoreMRSA+
# [12] = PKIS compound screen, HeLa cell count
# [13] = PKIS compound screen, Yes/No call on z-scoreHeLa
SMILES,effect (intracellular MRSA; [1]),hit (intracellular MRSA; [2]),z-scoreMRSA+ mean (intracellular MRSA; PKIS compound screen),z-scoreMRSA+ rep 1 (intracellular MRSA; PKIS compound screen),z-scoreMRSA+ rep 2 (intracellular MRSA; PKIS compound screen),z-scoreMRSA+ rep 3 (intracellular MRSA; PKIS compound screen),%GFP+ rep 1 (intracellular MRSA; [3]) [%],%GFP+ rep 2 (intracellular MRSA; [3]) [%],%GFP+ rep 3 (intracellular MRSA; [3]) [%],cell death (HeLa cells; [1]),z-scoreHeLa mean (HeLa cells; PKIS compound screen),z-scoreHeLa rep 1 (HeLa cells; PKIS compound screen),z-scoreHeLa rep 2 (HeLa cells; PKIS compound screen),z-scoreHeLa rep 3 (HeLa cells; PKIS compound screen),%GFP+ rep 1 (intracellular MRSA; [5]) [%],%GFP+ rep 2 (intracellular MRSA; [5]) [%],%GFP+ rep 3 (intracellular MRSA; [5]) [%],cell count rep 1 (HeLa cells; [8]),cell count rep 2 (HeLa cells; [8]),cell count rep 3 (HeLa cells; [8]),other results
Cc1ccc(NC(=O)Nc2ccccc2)cc1-c1ccc(C(=O)Nc2ccncc2)cc1 [GSK1398471A],No,No,2.16,1.78,2.78,1.92,36.2,40.5,37.6,No,-2.19,-2.47,-2.21,-1.88,,,,,,,cell count rep 1 (HeLa cells; [4]): 1939; cell count rep 2 (HeLa cells; [4]): 2675; cell count rep 3 (HeLa cells; [4]): 2624
Cc1cc(-c2ccnc(Nc3cccc(C#N)c3)n2)cc(C)c1O [GSK1440913A],,,,,,,,,,,,,,,19.8,21.2,19.2,3913,3957,5747,effect (intracellular MRSA; Yes/No call from z-scoreMRSA+): No; hit (intracellular MRSA; [6]): No; z-scoreMRSA+ mean (intracellular MRSA; [7]): -0.84; z-scoreMRSA+ rep 1 (intracellular MRSA; [7]): -1.28; z-scoreMRSA+ rep 2 (intracellular MRSA; [7]): -0.34; z-scoreMRSA+ rep 3 (intracellular MRSA; [7]): -0.90; cell death (HeLa cells; Yes/No call from z-scoreHeLa): No; z-scoreHeLa mean (HeLa cells; [9]): -0.09; z-scoreHeLa rep 1 (HeLa cells; [9]): -0.32; z-scoreHeLa rep 2 (HeLa cells; [9]): -0.27; z-scoreHeLa rep 3 (HeLa cells; [9]): 0.32
CC(C)c1nc(-c2cccc(NS(=O)(=O)c3ccccc3)c2)c(-c2ccnc(Nc3ccc4c(c3)CN(C)CC4)n2)s1 [GSK1649598A],No,No and Yes,-0.25,-0.30,-0.22,-0.22,25.5,24.9,26.1,No,-0.86,-1.22,-0.62,-0.73,10.0,11.1,12.2,27349,20392,19957,z-scoreMRSA+ mean (intracellular MRSA; [10]): -2.36; z-scoreMRSA+ rep 1 (intracellular MRSA; [10]): -2.35; z-scoreMRSA+ rep 2 (intracellular MRSA; [10]): -2.27; z-scoreMRSA+ rep 3 (intracellular MRSA; [10]): -2.47; effect (intracellular MRSA; [11]): Yes; z-scoreHeLa mean (HeLa cells; [12]): -0.37; z-scoreHeLa rep 1 (HeLa cells; [12]): -0.48; z-scoreHeLa rep 2 (HeLa cells; [12]): -0.84; z-scoreHeLa rep 3 (HeLa cells; [12]): 0.20; cell death (HeLa cells; [13]): No; cell count rep 1 (HeLa cells; [4]): 4018; cell count rep 2 (HeLa cells; [4]): 5078; cell count rep 3 (HeLa cells; [4]): 4439
Cc1cc(N2CCC(NS(=O)(=O)c3ccc(F)cc3)CC2)nc(Nc2cccc(C#N)c2)n1 [GSK1653537A],,,,,,,,,,,,,,,23.5,20.6,22.3,5368,4678,5821,effect (intracellular MRSA; Yes/No call from z-scoreMRSA+): No; hit (intracellular MRSA; [6]): No; z-scoreMRSA+ mean (intracellular MRSA; [7]): -0.29; z-scoreMRSA+ rep 1 (intracellular MRSA; [7]): -0.41; z-scoreMRSA+ rep 2 (intracellular MRSA; [7]): -0.49; z-scoreMRSA+ rep 3 (intracellular MRSA; [7]): 0.03; cell death (HeLa cells; Yes/No call from z-scoreHeLa): No; z-scoreHeLa mean (HeLa cells; [9]): 0.46; z-scoreHeLa rep 1 (HeLa cells; [9]): 0.73; z-scoreHeLa rep 2 (HeLa cells; [9]): 0.29; z-scoreHeLa rep 3 (HeLa cells; [9]): 0.37
COc1ccc(S(=O)(=O)NC2CCN(c3cc(C)nc(Nc4cccc(C#N)c4)n3)CC2)cc1 [GSK1653539A],No,No,0.99,0.85,0.68,1.43,31.4,29.6,35.0,No,0.33,0.22,0.92,-0.16,17.8,20.5,23.1,25166,21326,16886,z-scoreMRSA+ mean (intracellular MRSA; [10]): 0.18; z-scoreMRSA+ rep 1 (intracellular MRSA; [10]): -0.26; z-scoreMRSA+ rep 2 (intracellular MRSA; [10]): 0.30; z-scoreMRSA+ rep 3 (intracellular MRSA; [10]): 0.51; effect (intracellular MRSA; [11]): No; z-scoreHeLa mean (HeLa cells; [12]): -0.64; z-scoreHeLa rep 1 (HeLa cells; [12]): -0.85; z-scoreHeLa rep 2 (HeLa cells; [12]): -0.68; z-scoreHeLa rep 3 (HeLa cells; [12]): -0.40; cell death (HeLa cells; [13]): No; cell count rep 1 (HeLa cells; [4]): 6417; cell count rep 2 (HeLa cells; [4]): 7400; cell count rep 3 (HeLa cells; [4]): 5350
CC(=O)N1CCN(c2ccc(Nc3nccc(-c4sc(C(C)C)nc4-c4cccc(NS(=O)(=O)c5cccc(Cl)c5)c4)n3)cn2)CC1 [GSK1660437A],,,,,,,,,,,,,,,26.9,24.1,23.6,4478,3506,4504,effect (intracellular MRSA; Yes/No call from z-scoreMRSA+): No; hit (intracellular MRSA; [6]): No; z-scoreMRSA+ mean (intracellular MRSA; [7]): 0.39; z-scoreMRSA+ rep 1 (intracellular MRSA; [7]): 0.38; z-scoreMRSA+ rep 2 (intracellular MRSA; [7]): 0.36; z-scoreMRSA+ rep 3 (intracellular MRSA; [7]): 0.42; cell death (HeLa cells; Yes/No call from z-scoreHeLa): No; z-scoreHeLa mean (HeLa cells; [9]): -0.33; z-scoreHeLa rep 1 (HeLa cells; [9]): 0.09; z-scoreHeLa rep 2 (HeLa cells; [9]): -0.61; z-scoreHeLa rep 3 (HeLa cells; [9]): -0.46
Cc1cc(N2Cc3ccccc3C2)nc(Nc2ccc(S(=O)(=O)N3CCOCC3)cc2)n1 [GSK1669917A],,,,,,,,,,,,,,,24.7,22.0,22.0,5559,4564,5979,effect (intracellular MRSA; Yes/No call from z-scoreMRSA+): No; hit (intracellular MRSA; [6]): No; z-scoreMRSA+ mean (intracellular MRSA; [7]): -0.11; z-scoreMRSA+ rep 1 (intracellular MRSA; [7]): -0.13; z-scoreMRSA+ rep 2 (intracellular MRSA; [7]): -0.15; z-scoreMRSA+ rep 3 (intracellular MRSA; [7]): -0.06; cell death (HeLa cells; Yes/No call from z-scoreHeLa): No; z-scoreHeLa mean (HeLa cells; [9]): 0.51; z-scoreHeLa rep 1 (HeLa cells; [9]): 0.87; z-scoreHeLa rep 2 (HeLa cells; [9]): 0.20; z-scoreHeLa rep 3 (HeLa cells; [9]): 0.47
CN(C)S(=O)(=O)c1cc(-c2ccc3nccc(-c4cccc(S(N)(=O)=O)c4)c3c2)cnc1N [GSK1669921A],No,No,-1.31,-1.39,-1.10,-1.42,19.9,20.3,19.6,No,-1.20,-1.09,-1.39,-1.10,,,,,,,cell count rep 1 (HeLa cells; [4]): 4231; cell count rep 2 (HeLa cells; [4]): 3906; cell count rep 3 (HeLa cells; [4]): 3857
CC(C)c1nc(-c2cccc(NS(=O)(=O)c3c(F)cccc3F)c2)c(-c2ccnc(Nc3ccc(N4CCOCC4)nc3)n2)s1 [GSK1723980B],,,,,,,,,,,,,,,10.5,11.7,10.2,2167,1981,2206,effect (intracellular MRSA; Yes/No call from z-scoreMRSA+): Yes; hit (intracellular MRSA; [6]): Yes; z-scoreMRSA+ mean (intracellular MRSA; [7]): -3.23; z-scoreMRSA+ rep 1 (intracellular MRSA; [7]): -3.44; z-scoreMRSA+ rep 2 (intracellular MRSA; [7]): -2.65; z-scoreMRSA+ rep 3 (intracellular MRSA; [7]): -3.59; cell death (HeLa cells; Yes/No call from z-scoreHeLa): No; z-scoreHeLa mean (HeLa cells; [9]): -1.76; z-scoreHeLa rep 1 (HeLa cells; [9]): -1.58; z-scoreHeLa rep 2 (HeLa cells; [9]): -1.79; z-scoreHeLa rep 3 (HeLa cells; [9]): -1.92
CC(C)c1nc(-c2ccc(F)c(NS(=O)(=O)c3c(F)cccc3F)c2)c(-c2ccnc(Nc3ccc(N4CCOCC4)nc3)n2)s1 [GSK1804250A],No,No and Yes,-0.36,-0.40,-0.43,-0.25,25.0,23.8,25.9,No,-1.04,-1.27,-0.95,-0.90,10.3,10.8,13.4,20970,16426,18426,z-scoreMRSA+ mean (intracellular MRSA; [10]): -2.25; z-scoreMRSA+ rep 1 (intracellular MRSA; [10]): -2.27; z-scoreMRSA+ rep 2 (intracellular MRSA; [10]): -2.35; z-scoreMRSA+ rep 3 (intracellular MRSA; [10]): -2.14; effect (intracellular MRSA; [11]): Yes; z-scoreHeLa mean (HeLa cells; [12]): -1.06; z-scoreHeLa rep 1 (HeLa cells; [12]): -1.56; z-scoreHeLa rep 2 (HeLa cells; [12]): -1.52; z-scoreHeLa rep 3 (HeLa cells; [12]): -0.10; cell death (HeLa cells; [13]): No; cell count rep 1 (HeLa cells; [4]): 3939; cell count rep 2 (HeLa cells; [4]): 4582; cell count rep 3 (HeLa cells; [4]): 4170
